Source: ChEMBL document CHEMBL1201862, “PubChem BioAssay data set” (2004)
Activity calls are given as the source filed them.

How the values were obtained:
[1] = molecular target: T1, Tyrosyl-DNA phosphodiesterase 2 (Homo sapiens, UniProt O95551); test: potency against TDP2 phosphodiesterase activity – biochemical, epi absorbance, IC50, dose response (AID 743297)
T1 sequence (O95551 whole entry): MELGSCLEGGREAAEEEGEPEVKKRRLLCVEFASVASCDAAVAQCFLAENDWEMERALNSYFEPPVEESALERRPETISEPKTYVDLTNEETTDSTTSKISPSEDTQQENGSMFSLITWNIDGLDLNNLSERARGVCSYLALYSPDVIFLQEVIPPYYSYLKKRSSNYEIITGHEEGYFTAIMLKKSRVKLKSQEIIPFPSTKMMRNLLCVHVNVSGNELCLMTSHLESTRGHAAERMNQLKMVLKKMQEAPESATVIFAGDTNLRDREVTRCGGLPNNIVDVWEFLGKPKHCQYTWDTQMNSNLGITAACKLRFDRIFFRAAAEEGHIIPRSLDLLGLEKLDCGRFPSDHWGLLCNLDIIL

[2] = molecular target: T2, Aminopeptidase N (Plasmodium falciparum FcB1/Columbia, UniProt O96935); test: malaria alanyl aminopeptidase activity blockers – biochemical, fluorogenic H-Leu-NHMec substrate, 1536-well (AID 1445); design: species or system Plasmodium falciparum 3D7, 3D7
T2 sequence (O96935 whole entry): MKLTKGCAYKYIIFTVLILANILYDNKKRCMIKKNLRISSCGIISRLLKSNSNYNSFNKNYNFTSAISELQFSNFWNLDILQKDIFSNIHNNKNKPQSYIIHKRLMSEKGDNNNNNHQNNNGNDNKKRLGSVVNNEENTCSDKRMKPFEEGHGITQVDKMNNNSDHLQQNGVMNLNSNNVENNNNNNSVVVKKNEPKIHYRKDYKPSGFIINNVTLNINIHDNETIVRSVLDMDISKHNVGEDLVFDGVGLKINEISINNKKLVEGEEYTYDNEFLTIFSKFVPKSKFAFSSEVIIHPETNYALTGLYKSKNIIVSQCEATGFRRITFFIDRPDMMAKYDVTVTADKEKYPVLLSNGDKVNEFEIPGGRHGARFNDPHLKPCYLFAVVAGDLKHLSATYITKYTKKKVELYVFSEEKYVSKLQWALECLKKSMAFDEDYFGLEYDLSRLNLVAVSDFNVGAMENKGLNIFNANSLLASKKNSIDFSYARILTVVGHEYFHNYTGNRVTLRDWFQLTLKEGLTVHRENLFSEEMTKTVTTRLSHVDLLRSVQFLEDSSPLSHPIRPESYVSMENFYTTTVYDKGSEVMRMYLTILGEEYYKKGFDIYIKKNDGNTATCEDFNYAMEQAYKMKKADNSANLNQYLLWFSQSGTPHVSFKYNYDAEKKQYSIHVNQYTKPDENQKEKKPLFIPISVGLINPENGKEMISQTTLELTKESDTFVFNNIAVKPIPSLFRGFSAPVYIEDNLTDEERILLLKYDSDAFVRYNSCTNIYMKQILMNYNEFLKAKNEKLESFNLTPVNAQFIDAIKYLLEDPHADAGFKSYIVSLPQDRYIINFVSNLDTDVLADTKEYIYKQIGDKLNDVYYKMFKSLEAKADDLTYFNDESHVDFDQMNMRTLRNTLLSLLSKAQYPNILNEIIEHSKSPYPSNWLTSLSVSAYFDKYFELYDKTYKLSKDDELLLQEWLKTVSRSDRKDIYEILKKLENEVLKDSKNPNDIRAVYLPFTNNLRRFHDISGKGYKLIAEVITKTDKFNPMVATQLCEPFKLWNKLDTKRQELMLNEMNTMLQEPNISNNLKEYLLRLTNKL

[3] = molecular target: T3, Oxysterols receptor LXR-beta (Homo sapiens, UniProt P55055); format: functional, cell-based;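 note: agonist activity at LXR measured by a cell-based luminescence readout across a dose range, run as a counterscreen for daf-12 agonists; HEK293 cells with Gal4-LXR fusion and GAL4-driven luciferase reporter; potency for activation of Gal4-LXR reporter so compounds are agonists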
T3 sequence (P55055 whole entry): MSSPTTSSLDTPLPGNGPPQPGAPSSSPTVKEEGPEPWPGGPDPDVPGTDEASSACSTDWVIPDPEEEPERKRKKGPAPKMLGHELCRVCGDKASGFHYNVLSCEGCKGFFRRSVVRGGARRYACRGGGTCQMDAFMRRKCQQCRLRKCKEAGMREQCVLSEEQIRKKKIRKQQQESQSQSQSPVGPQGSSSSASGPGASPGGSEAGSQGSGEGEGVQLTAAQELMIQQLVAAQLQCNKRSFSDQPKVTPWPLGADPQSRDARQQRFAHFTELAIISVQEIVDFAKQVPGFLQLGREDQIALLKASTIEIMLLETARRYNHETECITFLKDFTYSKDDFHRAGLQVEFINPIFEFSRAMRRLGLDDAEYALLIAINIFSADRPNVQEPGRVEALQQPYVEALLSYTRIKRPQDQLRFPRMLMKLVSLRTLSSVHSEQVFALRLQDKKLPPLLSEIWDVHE

[4] = blockers of HIV-1 ZM109 envelope-driven cell-cell fusion – HeLa effector, CEM target cells, luciferase, cherry-pick, dose response (AID 652058); format: functional, cell-based;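 note: luciferase signal from HIV-1 Env mediated cell-cell fusion of effector and target cells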
[5] = HIV-1 AD8 envelope cell-cell fusion blockers – cherry-pick, dose response (AID 652062); format: functional, cell-based;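 note: luciferase signal from cell-cell fusion driven by HIV-1 clade B AD8 Env; potency is for inhibitors of fusion seen as a drop in luminescence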
[6] = viability loss in CEM21 cells – cell-based, CellTiter-Glo luminescence, cherry-picked, cytotoxicity control for viral fusion inhibitor project, dose response (AID 652042); format: functional;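 note: potency for signal decrease meaning cytotoxicity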
[7] = blockers of HIV-1 envelope-mediated cell-cell fusion – cherry-pick, dose response (AID 652057); format: functional, cell-based
[8] = off-target signal loss in HeLa-CEM21 co-culture – HeLa F-luc CTL cells, cherry-picked, counter-screen for HIV-1 Env fusion inhibitor project, dose response (AID 652040); format: functional, cell-based;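 note: potency for signal decrease marking cytotoxic or nonspecific inhibition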
[9] = molecular target: ADP-ribosylation factor GTPase-activating protein 1 (Rattus norvegicus, UniProt Q62848); test: Fluorescence polarization-based biochemical high throughput dose response screening assay to identify inhibitors of ADP-ribosylation factor GTPase activating protein 1 (ARFGAP1).; format: functional
ADP-ribosylation factor GTPase-activating protein 1, sequence (Q62848 whole entry, the tested form may be a part): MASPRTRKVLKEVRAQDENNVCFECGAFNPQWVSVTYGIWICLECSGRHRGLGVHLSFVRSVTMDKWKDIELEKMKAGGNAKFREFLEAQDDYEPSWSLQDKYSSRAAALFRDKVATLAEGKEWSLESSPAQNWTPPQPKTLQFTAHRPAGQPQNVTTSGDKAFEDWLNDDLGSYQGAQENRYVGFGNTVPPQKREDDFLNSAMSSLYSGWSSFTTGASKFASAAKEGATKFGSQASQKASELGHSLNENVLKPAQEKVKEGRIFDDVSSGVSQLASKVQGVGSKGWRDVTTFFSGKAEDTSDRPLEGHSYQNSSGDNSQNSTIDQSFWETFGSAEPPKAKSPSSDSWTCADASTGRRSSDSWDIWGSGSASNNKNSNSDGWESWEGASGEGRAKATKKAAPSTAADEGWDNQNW

[10] = molecular target: T4, Sentrin-specific protease 1 (Homo sapiens, UniProt Q9P0U3); test: Dose response confirmation of small molecule inhibitors of the catalytic domain of the SUMO protease, SENP1 in a FRET assay.; format: functional; conditions: read-out: IC50_Mean
T4 sequence (Q9P0U3 whole entry): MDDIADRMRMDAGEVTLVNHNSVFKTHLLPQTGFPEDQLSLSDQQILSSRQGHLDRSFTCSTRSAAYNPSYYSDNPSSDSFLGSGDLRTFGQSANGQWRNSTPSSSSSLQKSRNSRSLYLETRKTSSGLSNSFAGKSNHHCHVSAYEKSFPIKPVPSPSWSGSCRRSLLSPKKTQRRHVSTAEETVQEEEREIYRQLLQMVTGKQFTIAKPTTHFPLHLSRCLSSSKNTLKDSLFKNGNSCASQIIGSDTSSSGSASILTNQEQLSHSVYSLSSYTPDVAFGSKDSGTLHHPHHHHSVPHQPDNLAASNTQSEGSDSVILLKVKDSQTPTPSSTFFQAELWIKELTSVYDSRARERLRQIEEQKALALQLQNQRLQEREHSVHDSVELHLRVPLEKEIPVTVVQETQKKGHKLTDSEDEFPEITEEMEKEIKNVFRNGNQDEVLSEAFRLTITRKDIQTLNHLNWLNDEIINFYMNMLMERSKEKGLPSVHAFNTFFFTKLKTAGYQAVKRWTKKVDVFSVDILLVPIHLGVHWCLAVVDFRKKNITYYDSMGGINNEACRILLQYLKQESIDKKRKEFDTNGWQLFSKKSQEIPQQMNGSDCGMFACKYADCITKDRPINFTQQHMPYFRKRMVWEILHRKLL

[11] = molecular target: T4, Sentrin-specific protease 1; test: SENP1 catalytic domain blockers, concentration series – biochemical, kinetic FRET, dose response (AID 651697); format: functional; conditions: read-out: IC50_Mean
[12] = Counterscreen for inhibitors of Trypanosoma brucei methionyl tRNA synthetase (MetRS): Luminescence-based cell-based high throughput dose response assay to identify compounds that are cytotoxic to Jurkat human T lymphocyte cells.; format: functional
[13] = Luminescence Cell-Based Dose Retest to Confirm Inhibitors of Cancer Stem Cells. [Related pubchem assays (depositor defined):AID2717, AID2721]; format: functional; conditions: Homo sapiens
[14] = molecular target: Heat shock protein HSP 90-alpha (Homo sapiens, UniProt P07900); format: functional, organism-based
[15] = molecular target: T5, DNA repair and recombination protein RAD54-like (Homo sapiens, UniProt Q92698); test: RAD54 Holliday junction migration blockers – biochemical, fluorescence, cherry-picked samples, dose series, confirmation (AID 651657); format: functional
T5 sequence (Q92698 whole entry): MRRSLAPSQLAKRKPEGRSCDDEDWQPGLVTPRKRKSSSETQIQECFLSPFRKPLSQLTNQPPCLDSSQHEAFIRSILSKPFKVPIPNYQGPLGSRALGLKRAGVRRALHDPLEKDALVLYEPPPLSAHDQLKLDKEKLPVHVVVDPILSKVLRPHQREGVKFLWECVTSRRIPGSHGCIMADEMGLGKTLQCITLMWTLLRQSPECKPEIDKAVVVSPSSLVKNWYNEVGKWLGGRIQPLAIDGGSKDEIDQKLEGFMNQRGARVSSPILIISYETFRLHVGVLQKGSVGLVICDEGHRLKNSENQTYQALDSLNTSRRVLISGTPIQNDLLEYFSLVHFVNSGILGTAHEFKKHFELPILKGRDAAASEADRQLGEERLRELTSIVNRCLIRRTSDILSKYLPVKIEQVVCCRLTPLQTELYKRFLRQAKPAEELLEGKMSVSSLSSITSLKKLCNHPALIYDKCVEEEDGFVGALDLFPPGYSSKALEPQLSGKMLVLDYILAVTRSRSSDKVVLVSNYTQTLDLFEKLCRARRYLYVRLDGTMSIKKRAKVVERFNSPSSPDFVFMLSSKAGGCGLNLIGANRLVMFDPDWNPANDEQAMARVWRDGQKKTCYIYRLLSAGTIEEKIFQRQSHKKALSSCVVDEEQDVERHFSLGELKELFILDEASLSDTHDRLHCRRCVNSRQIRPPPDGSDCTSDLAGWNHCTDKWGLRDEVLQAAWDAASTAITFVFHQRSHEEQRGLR

[16] = molecular target: Cyclin-dependent kinase 5/CDK5 activator 1 (Homo sapiens, UniProt Q00535); test: blockade of human CDK5 activity – biochemical, cherry-picked samples, set 2, dose response (AID 504545)
Cyclin-dependent kinase 5/CDK5 activator 1, sequence (Q00535 whole entry): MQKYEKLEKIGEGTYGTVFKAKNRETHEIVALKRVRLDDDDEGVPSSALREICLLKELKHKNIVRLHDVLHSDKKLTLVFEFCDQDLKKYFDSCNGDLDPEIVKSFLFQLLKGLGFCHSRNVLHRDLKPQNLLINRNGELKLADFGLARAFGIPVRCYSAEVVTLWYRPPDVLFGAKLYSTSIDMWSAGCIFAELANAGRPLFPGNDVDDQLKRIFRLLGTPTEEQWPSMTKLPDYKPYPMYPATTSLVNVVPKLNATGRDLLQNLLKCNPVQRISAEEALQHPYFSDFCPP
Cyclin-dependent kinase 5/CDK5 activator 1, sequence (Q15078 whole entry, further chain): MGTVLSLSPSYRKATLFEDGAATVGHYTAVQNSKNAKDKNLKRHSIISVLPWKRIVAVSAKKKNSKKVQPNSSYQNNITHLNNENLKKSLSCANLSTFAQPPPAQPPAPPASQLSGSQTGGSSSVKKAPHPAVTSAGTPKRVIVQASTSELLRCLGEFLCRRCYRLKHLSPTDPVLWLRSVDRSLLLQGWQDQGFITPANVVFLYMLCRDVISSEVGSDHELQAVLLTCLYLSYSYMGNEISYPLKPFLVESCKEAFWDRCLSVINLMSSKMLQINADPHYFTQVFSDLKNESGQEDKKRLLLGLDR

[17] = molecular target: Cytochrome P450 2C9 (Homo sapiens, UniProt P11712)
Cytochrome P450 2C9, sequence (P11712 whole entry): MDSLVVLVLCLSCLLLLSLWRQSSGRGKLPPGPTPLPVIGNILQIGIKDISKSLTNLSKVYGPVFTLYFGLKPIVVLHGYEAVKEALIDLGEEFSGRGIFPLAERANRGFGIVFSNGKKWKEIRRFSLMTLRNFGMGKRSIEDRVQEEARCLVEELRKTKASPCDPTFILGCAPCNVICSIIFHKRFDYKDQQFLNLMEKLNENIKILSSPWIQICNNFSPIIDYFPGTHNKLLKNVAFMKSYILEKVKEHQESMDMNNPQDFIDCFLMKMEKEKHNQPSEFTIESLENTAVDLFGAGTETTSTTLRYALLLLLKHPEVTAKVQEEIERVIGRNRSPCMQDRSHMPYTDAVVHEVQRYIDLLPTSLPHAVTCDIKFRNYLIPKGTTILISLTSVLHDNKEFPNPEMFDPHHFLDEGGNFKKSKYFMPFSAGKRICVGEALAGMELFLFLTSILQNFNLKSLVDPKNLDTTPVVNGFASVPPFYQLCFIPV

[18] = molecular target: T6, DNA repair protein RAD52 homolog (Homo sapiens, UniProt P43351); format: functional, biochemical
T6 sequence (P43351 whole entry): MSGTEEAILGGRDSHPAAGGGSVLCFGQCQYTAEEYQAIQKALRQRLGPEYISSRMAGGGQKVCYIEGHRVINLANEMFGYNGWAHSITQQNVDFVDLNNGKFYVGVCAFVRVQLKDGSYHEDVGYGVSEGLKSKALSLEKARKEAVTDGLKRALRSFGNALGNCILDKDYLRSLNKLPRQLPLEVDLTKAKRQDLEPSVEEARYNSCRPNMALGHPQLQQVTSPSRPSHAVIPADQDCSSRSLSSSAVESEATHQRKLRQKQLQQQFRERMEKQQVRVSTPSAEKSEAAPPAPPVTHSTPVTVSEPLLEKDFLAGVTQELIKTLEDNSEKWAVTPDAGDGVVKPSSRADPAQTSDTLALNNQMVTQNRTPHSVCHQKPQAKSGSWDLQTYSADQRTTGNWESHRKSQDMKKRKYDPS

[19] = molecular target: Paired box protein Pax-8 (Homo sapiens, UniProt Q06710); test: PAX8 transcriptional activity inhibition in RMG-I – RMG-I cells, luciferase, cherry-pick, dose response (AID 687027); format: functional, cell-based;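 note: luciferase reporter driven by Pax8 target thyroperoxidase promoter measured by SteadyGlo luminescence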
Paired box protein Pax-8, sequence (Q06710 whole entry): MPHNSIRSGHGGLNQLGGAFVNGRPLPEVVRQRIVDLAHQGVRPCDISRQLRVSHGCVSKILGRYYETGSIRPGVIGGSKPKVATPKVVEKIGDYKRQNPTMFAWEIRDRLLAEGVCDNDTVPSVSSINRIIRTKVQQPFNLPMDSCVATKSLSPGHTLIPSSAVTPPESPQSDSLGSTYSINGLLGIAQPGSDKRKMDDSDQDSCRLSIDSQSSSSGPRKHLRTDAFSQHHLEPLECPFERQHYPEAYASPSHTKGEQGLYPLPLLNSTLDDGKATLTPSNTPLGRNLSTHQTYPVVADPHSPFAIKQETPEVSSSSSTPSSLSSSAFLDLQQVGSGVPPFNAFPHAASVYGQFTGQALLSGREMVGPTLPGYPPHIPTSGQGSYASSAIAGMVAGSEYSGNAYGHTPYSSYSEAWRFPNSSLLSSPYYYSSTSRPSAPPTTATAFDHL

[20] = OVCAR8 cell viability loss – plate reader, dry powder samples, PAX8 project, dose response (AID 743197); format: functional, cell-based; conditions: OVCAR-8
[21] = OVCAR-3 cell viability loss – plate reader, dry powder samples, PAX8 inhibitor project, dose response (AID 743044); format: functional, cell-based

In the case of `CCCCn1c(NS(=O)(=O)c2ccccc2)c(C(=O)OCC)c2nc3ccccc3nc21`, the IC50 [1] is reported as > 128 µM (inactive) and the IC50 [2] is reported as 74.4 µM (active).
With `Cc1nc2sc(-c3ccccc3)nn2c(=O)c1Br` the EC50 [3] was > 67.5 µM (inactive).
With `CC(C)Oc1cc(O)c2c(=O)c(-c3ccc(O)cc3)coc2c1` the EC50 [3] was > 67.6 µM (inactive).
With `Cc1cc(OCC(O)CNC(C)c2ccccc2)ccc1C(C)C` (centres undefined) the AC50 [4] was 1.85 µM (active), the AC50 [5] was 7.78 µM (active) and the AC50 [6] was 13.3 µM (active). For the same compound, the AC50 [7] was 2.75 µM (active) and the AC50 [8] was 3.99 µM (active).
In the case of `Nc1nc(/C=C/c2cccnc2)nc(-c2ccccc2O)n1`, the IC50 [9] is reported as 165 µM (inactive).
In the case of `COc1cc(OC)cc(C(=O)Nc2ccccc2-c2nnn(CC(=O)Nc3cc(C)on3)n2)c1`, the IC50 [9] is reported as 72.6 µM (inactive).
In the case of `Nc1ccc2c(c1)C(=O)N(CC1CCCO1)C2=O` (centres undefined), the IC50 [10] is reported as 8.2 µM (active) and the IC50 [11] is reported as 11.1 µM (active).
In the case of `O=C(Cc1ccc(Br)cc1)NNC(=O)Nc1ccc(Cl)cc1`, the IC50 [12] is reported as 83.3 µM (inactive).
With `Cc1cc(N=Nc2ccc3ccccc3c2)ccc1O` the EC50 [3] was > 67.6 µM (inactive), the AC50 [13] was 3.23 µM (active) and the AC50 [14] was 3.92 µM (active).
For `Nc1c(C(=O)NCCN2CCOCC2)c2nc3ccccc3nc2n1-c1ccccc1`, the AC50 [15] was 52 µM (active).
For `Cc1ccc(NC2=C(C(=O)c3ccccc3)N(C)S(=O)(=O)c3ccccc32)cc1`, the IC50 [10] was 15.4 µM (active) and the IC50 [11] was 26.2 µM (inactive).
In the case of `CC1(C)Cc2c(ccc3ccccc23)C(=O)N1`, the AC50 [4] is reported as 8.55 µM (active), the AC50 [5] is reported as 2.95 µM (active) and the AC50 [16] is reported as 22.4 µM (active). The AC50 [6] was 47.6 µM (active), the AC50 [17] was “inconclusive” and the AC50 [7] was 4.84 µM (active). For the same compound, the AC50 [8] was 14.1 µM (active).
For `CC(=O)Nc1cc(-c2ccc(N3CCN(C)CC3)cc2)cn2c(-c3ccc(S(C)(=O)=O)cc3)cnc12`, the AC50 [18] was 4.37 µM (active) and the AC50 [15] was 20.3 µM (active).
For `O=c1[nH]c2cc3ccccc3cc2nc1-c1nnnn1Cc1ccccc1`, the IC50 [10] was 7.19 µM (active) and the IC50 [11] was 15.8 µM (active).
For `Cc1ccc(S(=O)(=O)Nc2ccc3c(c2)C(=O)N([C@H](C)CO)C[C@H](C)[C@@H](CN(C)S(=O)(=O)c2ccc(Cl)cc2)OCCCC[C@H](C)O3)cc1`, the AC50 [19] was 3.2 µM (active), the AC50 [20] was > 70 µM (inactive) and the AC50 [21] was 14.4 µM (active).
